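Exposure lasted 48 hours, with cells grown in 96-well plates and compounds tested at five concentrations. At the GI50, growth is halved.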 Calls of active or inactive are those of the source. Rule as the data show it: active = GI50 up to about 1.1 µM and inactive = higher.
Experiments:
Assay in all cases: growth of human tumour cells (NCI), 48 h
NCI-H522 = test system: NCI-H522
OVCAR-4 = test system: OVCAR-4
MOLT-4 = test system: MOLT-4
RPMI-8226 = test system: RPMI-8226
RXF 393 = test system: RXF 393
HOP-62 = test system: HOP-62
A498 = test system: A498
UO-31 = test system: UO-31
HL-60 = test system: HL-60
HCT-15 = test system: HCT-15
HCT-116 = test system: HCT-116
SF-295 = test system: SF-295
DLD-1 = test system: DLD-1
SNB-75 = test system: SNB-75
SR = test system: SR
PC-3 = test system: PC-3
MDA-N = test system: MDA-N
MDA-MB-231 = test system: MDA-MB-231
NCI/ADR-RES = test system: NCI/ADR-RES
Hs-578T = test system: Hs-578T

Row | SMILES | GI50 (NCI-H522) | GI50 (OVCAR-4) | GI50 (MOLT-4) | GI50 (RPMI-8226) | GI50 (RXF 393) | GI50 (HOP-62) | GI50 (A498) | GI50 (UO-31) | GI50 (HL-60) | GI50 (HCT-15) [µM] | GI50 (HCT-116) | GI50 (SF-295) | GI50 (DLD-1) | GI50 (SNB-75) | GI50 (SR) | GI50 (PC-3) | GI50 (MDA-N) | GI50 (MDA-MB-231) | GI50 (NCI/ADR-RES) | GI50 (Hs-578T)
1 | CC1=NN(C(=O)c2ccc(Cl)cc2)C(=O)/C1=C/c1ccc(O)cc1 | > 100 µM (inactive) | > 100 µM (inactive) | > 100 µM (inactive) | > 100 µM (inactive) | > 100 µM (inactive) | > 100 µM (inactive) | > 100 µM (inactive) | > 100 µM (inactive) | > 100 µM (inactive) | > 100 | > 100 µM (inactive) | > 100 µM (inactive) | > 100 µM (inactive) | – | – | – | – | – | – | –
2 | COc1ccc2c(c1)NC1(O)c3ccccc3C(=O)C21O (stereo not drawn) | > 100 µM (inactive) | – | > 100 µM (inactive) | > 100 µM (inactive) | – | > 100 µM (inactive) | > 100 µM (inactive) | > 100 µM (inactive) | > 100 µM (inactive) | – | > 100 µM (inactive) | > 100 µM (inactive) | > 100 µM (inactive) | > 100 µM (inactive) | > 100 µM (inactive) | – | – | – | – | –
3 | O=C1c2cccnc2C(=O)c2c1nc1ccccc1c2-c1ccc2c3c(nc4ccccc42)C(=O)c2cccnc2-c13 | 0.692 µM (active) | 1.08 µM (active) | 0.638 µM (active) | 1.63 µM (inactive) | 0.838 µM (active) | 1.17 µM (inactive) | 2.69 µM (inactive) | 1.24 µM (inactive) | 1.2 µM (inactive) | 0.195 | 0.459 µM (active) | 2.56 µM (inactive) | – | 2.07 µM (inactive) | < 0.01 µM (active) | 1.44 µM (inactive) | 2.13 µM (inactive) | 2.21 µM (inactive) | 1.45 µM (inactive) | 1.81 µM (inactive)
4 | O=C1c2ccccc2C(Br)(Br)c2ccccc21 | 25.4 µM (inactive) | 1.16 µM (inactive) | > 31.6 µM (inactive) | > 10 µM (inactive) | 18.2 µM (inactive) | > 10 µM (inactive) | > 10 µM (inactive) | > 31.6 µM (inactive) | > 31.6 µM (inactive) | > 31.6 | > 31.6 µM (inactive) | > 31.6 µM (inactive) | > 31.6 µM (inactive) | 14.9 µM (inactive) | > 31.6 µM (inactive) | – | – | – | – | –
5 | O=C1c2cc3c(cc2CC12Cc1ccccc1C2)CCC3 | 27.4 µM (inactive) | 50.2 µM (inactive) | 19.9 µM (inactive) | 21.9 µM (inactive) | 22.1 µM (inactive) | 27.8 µM (inactive) | 34.4 µM (inactive) | 26.2 µM (inactive) | 25.5 µM (inactive) | 33.9 | 22.2 µM (inactive) | 46.5 µM (inactive) | – | 31.6 µM (inactive) | 35.9 µM (inactive) | 34 µM (inactive) | 27.3 µM (inactive) | 23.6 µM (inactive) | 28.4 µM (inactive) | 31.6 µM (inactive)
6 | O=c1cc(CO)oc(C(O)c2ccccc2)c1O (stereo not drawn) | > 100 µM (inactive) | > 100 µM (inactive) | > 100 µM (inactive) | > 100 µM (inactive) | > 100 µM (inactive) | > 100 µM (inactive) | > 100 µM (inactive) | > 100 µM (inactive) | > 100 µM (inactive) | > 100 | > 100 µM (inactive) | > 100 µM (inactive) | – | > 100 µM (inactive) | > 100 µM (inactive) | > 100 µM (inactive) | > 100 µM (inactive) | > 100 µM (inactive) | > 100 µM (inactive) | > 100 µM (inactive)
7 | Cc1ccccc1/N=C/c1ccc(N(CCC#N)S(=O)(=O)c2ccccc2)cc1 | 70.1 µM (inactive) | > 100 µM (inactive) | > 100 µM (inactive) | > 100 µM (inactive) | > 100 µM (inactive) | > 100 µM (inactive) | > 100 µM (inactive) | > 100 µM (inactive) | 32.4 µM (inactive) | > 100 | > 100 µM (inactive) | > 100 µM (inactive) | > 100 µM (inactive) | > 100 µM (inactive) | > 100 µM (inactive) | – | – | – | – | –
8 | CC(=O)OCC(=O)[C@@]1(O)CC[C@H]2[C@@H]3CCC4=CC(=O)[C@H](C)C[C@]4(C)[C@H]3[C@@H](O)C[C@@]21C | > 100 µM (inactive) | > 100 µM (inactive) | – | > 100 µM (inactive) | – | > 100 µM (inactive) | > 100 µM (inactive) | – | > 100 µM (inactive) | > 100 | > 100 µM (inactive) | > 100 µM (inactive) | > 100 µM (inactive) | > 100 µM (inactive) | > 100 µM (inactive) | – | – | – | – | –
9 | COC(=O)CCC(NC(=S)N/N=C/c1ccco1)C(=O)OC (stereo not drawn) | > 100 µM (inactive) | > 100 µM (inactive) | – | – | > 100 µM (inactive) | > 100 µM (inactive) | > 100 µM (inactive) | > 100 µM (inactive) | > 100 µM (inactive) | > 100 | > 100 µM (inactive) | > 100 µM (inactive) | > 100 µM (inactive) | > 100 µM (inactive) | > 100 µM (inactive) | – | – | – | – | –
10 | NC(=S)/N=C(/c1nc2ccc(Cl)cc2nc1O)C(O)c1ccccc1Cl (stereo not drawn) | > 100 µM (inactive) | > 100 µM (inactive) | > 100 µM (inactive) | > 100 µM (inactive) | > 100 µM (inactive) | > 100 µM (inactive) | > 100 µM (inactive) | > 100 µM (inactive) | > 100 µM (inactive) | > 100 | – | > 100 µM (inactive) | > 100 µM (inactive) | > 100 µM (inactive) | – | – | – | – | – | –
11 | COC1=CC2(C=CC1=O)c1cc(OC)c(OC)cc1CCN2C(=O)c1ccccc1 (stereo not drawn) | > 100 µM (inactive) | – | > 100 µM (inactive) | > 100 µM (inactive) | > 100 µM (inactive) | – | > 100 µM (inactive) | 97.9 µM (inactive) | – | > 100 | > 100 µM (inactive) | > 100 µM (inactive) | > 100 µM (inactive) | > 100 µM (inactive) | – | – | – | – | – | –
12 | Cc1ccc2c(c1)C(c1cccc3ccccc13)OC2=O (stereo not drawn) | > 100 µM (inactive) | 35 µM (inactive) | > 100 µM (inactive) | – | 27.8 µM (inactive) | 21.4 µM (inactive) | 26 µM (inactive) | > 100 µM (inactive) | > 100 µM (inactive) | > 100 | > 100 µM (inactive) | 61 µM (inactive) | 75 µM (inactive) | 36.4 µM (inactive) | > 100 µM (inactive) | – | – | – | – | –
13 | CCCCCC1C2C(=O)NC(=O)C1C(=O)NC2=O (stereo not drawn) | > 100 µM (inactive) | > 100 µM (inactive) | > 100 µM (inactive) | > 100 µM (inactive) | > 100 µM (inactive) | > 100 µM (inactive) | > 100 µM (inactive) | > 100 µM (inactive) | > 100 µM (inactive) | > 100 | – | > 100 µM (inactive) | > 100 µM (inactive) | > 100 µM (inactive) | – | – | – | – | – | –
14 | CS(=O)(=O)NNS(=O)(=O)c1ccc(Cl)cc1 | 90.8 µM (inactive) | > 100 µM (inactive) | 55.7 µM (inactive) | > 100 µM (inactive) | 26.1 µM (inactive) | > 100 µM (inactive) | > 100 µM (inactive) | 35.6 µM (inactive) | > 100 µM (inactive) | > 100 | > 100 µM (inactive) | > 100 µM (inactive) | > 100 µM (inactive) | > 100 µM (inactive) | 62.8 µM (inactive) | – | – | – | – | –
15 | C=CCc1cc(C(Cc2ccccc2)NC(C)C)cc(OCc2ccccc2)c1OCc1ccccc1 (stereo not drawn) | 15.3 µM (inactive) | 17.4 µM (inactive) | 10.7 µM (inactive) | 12.9 µM (inactive) | 14.4 µM (inactive) | 15.9 µM (inactive) | 15.3 µM (inactive) | 10.1 µM (inactive) | 14.5 µM (inactive) | 16.3 | 16.4 µM (inactive) | 17.8 µM (inactive) | – | 13.2 µM (inactive) | 12.2 µM (inactive) | 15.3 µM (inactive) | 13.2 µM (inactive) | 15 µM (inactive) | 16.3 µM (inactive) | 18 µM (inactive)
16 | CCOC(=O)c1c(-c2ccccc2)oc(-c2ccccc2)c1C(=O)OCC | > 100 µM (inactive) | – | 48.1 µM (inactive) | 50 µM (inactive) | > 100 µM (inactive) | > 100 µM (inactive) | 60.7 µM (inactive) | > 100 µM (inactive) | 33.6 µM (inactive) | – | > 100 µM (inactive) | > 100 µM (inactive) | > 100 µM (inactive) | > 100 µM (inactive) | 68.2 µM (inactive) | – | – | – | – | –
17 | O=C(OC12CC3CC(CC(C3)C1)C2)c1ccc(NCc2cc(O)ccc2O)cc1 | 0.0776 µM (active) | 0.433 µM (active) | 0.0944 µM (active) | 0.0966 µM (active) | 0.288 µM (active) | 4.52 µM (inactive) | 1.87 µM (inactive) | 0.417 µM (active) | 0.0491 µM (active) | 0.435 | 1.17 µM (inactive) | 2.29 µM (inactive) | – | 0.607 µM (active) | 0.132 µM (active) | 0.667 µM (active) | 1.32 µM (inactive) | 1.98 µM (inactive) | 0.637 µM (active) | 0.982 µM (active)
18 | CCCCCCCC1(c2ccc(N)cc2)CCC(=O)NC1=O (stereo not drawn) | 27.2 µM (inactive) | 28.1 µM (inactive) | 23.8 µM (inactive) | 19.1 µM (inactive) | 28 µM (inactive) | 32.9 µM (inactive) | – | 20.5 µM (inactive) | 17 µM (inactive) | 36.8 | – | 30.4 µM (inactive) | 33.7 µM (inactive) | 22.5 µM (inactive) | – | – | – | – | – | –
19 | COC(=N)c1csc(C2OC(CO)C(O)C2O)n1 (stereo not drawn) | > 100 µM (inactive) | > 100 µM (inactive) | 61.9 µM (inactive) | > 100 µM (inactive) | – | > 100 µM (inactive) | > 100 µM (inactive) | 50.7 µM (inactive) | 38.5 µM (inactive) | > 100 | > 100 µM (inactive) | > 100 µM (inactive) | 83.9 µM (inactive) | – | – | – | – | – | – | –
